Structures can show the parent of a compound that is named as a salt.
What was measured:
[1] = system: Protease XXIII from Aspergillus oryzae (Enzyme A); assay: Homogeneous aqueous enzymatic resolution (ester hydrolysis) with Enzyme A; type: biochemical
Experimental: No further purification was performed.

[2] = target: T1, Protease XXVII "Nagarse" (Enzyme D) (Bacillus amyloliquefaciens, UniProt P00782); assay: Homogeneous aqueous enzymatic resolution with Enzyme D; type: biochemical; details: acid product (R); 150 mg enzyme D, pH 7.8
T1 construct: purchased Protease XXVII
T1 sequence (P00782 108-382): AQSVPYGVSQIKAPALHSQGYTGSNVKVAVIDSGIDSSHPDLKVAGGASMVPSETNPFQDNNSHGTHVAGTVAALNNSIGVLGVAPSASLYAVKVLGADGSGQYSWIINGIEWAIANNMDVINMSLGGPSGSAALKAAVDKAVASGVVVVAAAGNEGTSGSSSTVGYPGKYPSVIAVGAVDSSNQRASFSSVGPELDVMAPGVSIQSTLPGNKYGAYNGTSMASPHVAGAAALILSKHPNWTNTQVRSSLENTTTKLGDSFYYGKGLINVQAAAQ

Pig Liver Esterase (E) = assay: Homogeneous aqueous enzymatic resolution with Enzyme E; type: biochemical; details: 30 mg Pig Liver Esterase
[3] = system: Protease XVI from Bacillus subtilis (Enzyme C); assay: Homogeneous aqueous enzymatic resolution with Enzyme C; type: biochemical; details: 100 mg enzyme C, 10 mmol ester in 100 ml 0.2M phosphate buffer pH 7.0, 20 hours, 20-22 C
[4] = system: protease Prozyme 6 (Enzyme F); assay: Homogeneous aqueous enzymatic resolution with Enzyme F; type: biochemical, Aspergillus oryzae; details: for Conversion in Homogeneous Aqueous Reaction System: 0.5M ester, pH 7.0, 30 C
Experimental: The enzymatic reaction mixtures were capped and briefly shaken until all the substrate had dissolved, and the enzyme had completely dissolved or dispersed. […] Evaporation of the ether left a white solid. The result is summarized below in Table 11 Rotations were measured at c=1 in CHCl3.
The enzymatic reaction mixtures were capped and briefly shaken until all the substrate had dissolved, and the enzyme had completely dissolved or dispersed. […] Evaporation of the ether left a white solid. Rotations were measured at c=1 in CHCl3.
The reaction was started by adding 100 mg of the protease (F) from the fungus Aspergillus oryzae (from Amano Enzyme Corporation, Prozyme 6, 60,000 units per mg of solid).
After 20 hours at room temperature, the solution was acidified to pH 2 and extracted with 3 volumes of diethyl ether. The aqueous phase was saved for subsequent workup. The ether phase was washed with two volumes of distilled water and then one volume of saturated sodium chloride, and then it was dried over MgSO4 and subsequently evaporated to dryness. The resolved ibuprofen product recovered was 930 mg of white powder, indicating 45% conversion of racemic ester to acid. The optical rotation was -0.580° (measured at c=1 in ethanol), indicating the R isomer of ibuprofen.
35 mg of protease Enzyme F, as the commercial preparation Prozyme 6, were added to the aqueous solution. The reaction flask was capped, and briefly shaken until all the enzyme had dissolved or dispersed. […] The resulting mixture was diluted with one volume of water and was extracted with diethyl ether (2 times 200 ml). The ether layers were combined and backwashed with water (2 times 200 ml), saturated NaCl solution (200 ml), and then dried over MgSO4.
In this control run, a 0.5M ester solution of (1) was prepared in 325 ml of 0.1M sodium phosphate buffer (pH 7.0). The reaction was started by adding 3 gm of the above enzyme (F). The pH was controlled at 7.0 with 8.22M sodium hydroxide. After 6.49 hours at 30° C., 6.63 ml of hydroxide were added, indicating 37.7% conversion. The reaction was allowed to continue overnight and, after 23.1 hours, a total of 7.2 ml of sodium hydroxide were added, indicating 40.9% conversion.

[5] = system: protease Prozyme 6 (Enzyme F); assay: Asymmetric hydrolysis in an extractive dispersion reactor with Enzyme F; type: biochemical, Aspergillus oryzae; details: 100 mg Prozyme 6, 3.38 gm ester in 100 ml buffer pH 7.0 and 100 ml hexane, 3.5 hours, room temperature
Experimental: In this Example, the hexane was dispersed in the reaction vessel to extract the inhibitory ibuprofen acid as it is formed. The reaction was started by adding 100 mg of the protease from the fungus Aspergillus oryzae (from Amano Enzyme Corporation, Prozyme 6, 60,000 units per mg of solid).
After 3.5 hours at room temperature with vigorous stirring, the solution was acidified to pH 2 and extracted with 2 volumes of hexane. The aqueous phase was saved for subsequent workup. The hexane phase was dried over MgSO4 and evaporated to dryness. The resolved ibuprofen product so recovered consisted of 490 mg of white powder, indicating 24% conversion. The optical rotation was -0.568° (c=1.015 in ethanol), indicating the R isomer of ibuprofen.

[6] = system: protease Prozyme 6 (Enzyme F); assay: Asymmetric hydrolysis in an extractive membrane reactor with Enzyme F; type: biochemical, Aspergillus oryzae
Excerpt: Hexane was recirculated through the lumen or bores of the fibers in the module. The aqueous solution in the shell contained the enzyme and ester. While the cellulose membrane is water-wet, the membrane rejects the macromolecular enzyme (molecular weight 18,000). Therefore, the enzyme resides solely in the aqueous ester solution. As the ibuprofen acid was formed, it was extracted into the hexane phase, thereby reducing the effect of product (ibuprofen acid) inhibition on the activity of the enzyme.
The aqueous phase used to extract the ibuprofen acid from hexane in this module contained 0.1 M sodium carbonate buffer at pH 9.5. The pH was maintained at this value by the addition of 8.22M sodium hydroxide as required.
In this Example, the aqueous stream in the extractive membrane reactor module consisted of a solution of the sulfomethyl ester of ibuprofen (1), which solution was prepared by adding 32.51 gm of the sodium salt of the ester (at 75% chemical purity) to 1000 ml of 0.1M sodium phosphate buffer (pH 7.0). The reaction was started by adding 2 gm of the protease (F) from the fungus Aspergillus oryzae (from Amano Enzyme Corporation, Prozyme 6, 60,000 units per […] of solid). Reaction progress was followed by automatic titrimetry using a pH-stat.
The pH 9.5 solution was then acidified to pH 2 and extracted with 2 volumes of t-butyl methyl ether. The ether phase was first washed with two volumes of distilled water, then dried over MgSO4. and subsequently evaporated to dryness. The resolved ibuprofen product was recovered as about 6 gm of a white powder.
The optical rotation of the recovered product was measured by polarimetry; the experimentally determined value for [α]D was -56.7° (measured at c=0.815 in ethanol), thereby indicating the R isomer of ibuprofen. The sample was also analyzed by chiral HPLC using a Bakerbond DNBPG (covalent) column (4.6×250 mm), with 96.9% hexane:3.0% 2-propanol:0.1% acetonitrile as the mobile phase at 2 ml/min after derivatization with napthalene amine. The detector was a UV spectrophotometer set at 223 nm. The retention times for the S and R ibuprofen acids were 18.5 and 20.0 min, respectively. The optical purity or enantiomeric excess of this R ibuprofen sample as determined by this chiral HPLC procedure was 99.3% (i.e., enantiomeric excess of R ibuprofen).
The aqueous phase at pH 7.0 (as recovered from the extractive membrane reactor) was mixed with 280 gm of sodium chloride to salt out the remaining unconverted ester. The ester was filtered, washed with saturated sodium chloride, and air dried. 12.8 gm of ester were recovered in this manner. […] The optical rotation (as measured by polarimetry) was [α]D =+57.4° (c=1.29 in ethanol), indicating the S isomer of ibuprofen. […]

[7] = system: lipase from Candida cylindracea (Meito Sangyo, Lipase OF); assay: Activity of Lipase OF against the ester; type: biochemical
[8] = target: T2, Protease VIII "Subtilopeptidase A" (subtilisin Carlsberg) (Enzyme B) (Bacillus licheniformis, UniProt P00780); assay: Homogeneous aqueous enzymatic resolution with Enzyme B; type: biochemical
T2 sequence (P00780 106-379): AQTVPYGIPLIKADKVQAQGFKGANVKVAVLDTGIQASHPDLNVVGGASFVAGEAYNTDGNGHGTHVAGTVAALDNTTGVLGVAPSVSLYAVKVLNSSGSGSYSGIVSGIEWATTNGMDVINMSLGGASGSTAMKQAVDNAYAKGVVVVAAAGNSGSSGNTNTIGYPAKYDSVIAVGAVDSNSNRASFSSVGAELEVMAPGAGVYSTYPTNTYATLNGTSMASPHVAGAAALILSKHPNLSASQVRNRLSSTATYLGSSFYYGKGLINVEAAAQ

[9] = cited from earlier work
[10] = Solubility of esters, absorbance of saturated solutions at 262 nm; type: physicochemical; details: saturated solution, pH 7 (50 mM phosphate buffer), room temperature

Question: With `CC(C)Cc1ccc(C(C)C(=O)OCCCS(=O)(=O)O)cc1` (centres unmarked) [Compound 3, Potassium Salt of 3-Sulfopropyl Ester of 2-(4-Isobutylphenyl)propanoic Acid] as the compound, how does the “% CONVERSION” value ([1]; 100 mg enzyme A, 10 mmol ester in 100 ml 0.2M phosphate buffer pH 7.0, 20 hours, 20-22 C) read?
Answer: 50.0%

Question: And the “conversion of the racemic ester to acid” value ([1]; 1.00 gm enzyme A, about 1 M ester, 0.1M potassium phosphate pH 7.0, 23.9 hours, room temperature, by NaOH titration)?
Answer: 29%

Question: What about the “% e.e.” value [2] of the same compound?
Answer: 91.0%

Question: And the “% CONVERSION” value (Pig Liver Esterase (E); 0.010 mol ester in 100 ml 0.2M sodium phosphate buffer at pH 7.8 (heading: pH 7.0))?
Answer: 12.1%

Question: What about the “% e.e.” value (Pig Liver Esterase (E); acid product (R), pH 7.8 (heading: pH 7.0)) of the same compound?
Answer: 88.0%

Question: With `CC(C)Cc1ccc(C(C)C(=O)OCCOP(=O)(O)O)cc1` (centres unmarked) [Compound 5, Disodium Salt of the Phosphoric Acid Ester of the 2-Hydroxyethyl Ester of 2-(4-Isobutylphenyl)propanoic Acid] as the compound, how does the “% CONVERSION” value [3] read?
Answer: 5.3%

Question: With `CC(C)Cc1ccc(C(C)C(=O)OCS(=O)(=O)O)cc1` (centres unmarked) [Compound 1, Sodium Salt of 4-Sulfomethyl Ester of 2-(4-Isobutylphenyl)propanoic Acid] as the compound, how does the “% e.e.” value ([1]; acid product (R), 100 mg enzyme A, pH 7.0, 20 hours, 20-22 C) read?
Answer: > 99%

Question: And the “conversion of racemic ester to acid” value ([4]; 100 mg Prozyme 6, 3.22 gm ester in 100 ml 0.2M sodium phosphate pH 7.0, 20 hours, room temperature)?
Answer: 45%

Question: What about the conversion ([4]; 3 gm enzyme F, 0.5M ester in 325 ml 0.1M sodium phosphate pH 7.0, 30 C, after 6.49 hours) of the same compound?
Answer: 37.7%

Question: What about the “Conversion in Homogeneous Aqueous Reaction System” value ([4]; 3 gm enzyme F, 23.1 hours) of the same compound?
Answer: 40.9%

Question: What about the “Conversion in Homogeneous Aqueous Reaction System” value ([4]; 3 gm enzyme F, Time 6.75 hrs) of the same compound?
Answer: 37.7%

Question: What about the conversion [5] of the same compound?
Answer: 24%

Question: And the “conversion of the racemic ester to the acid” value ([6]; enzyme in aqueous phase and membrane pores, 3 gm Prozyme 6, 0.5M ester, pH 7.0, 6.75 hours at 30 C)?
Answer: 48.3%

Question: And the “conversion of the racemic ester to ibuprofen acid” value ([6]; enzyme in aqueous phase only (cellulose dialysis fibers), 2 gm Prozyme 6, 32.51 gm ester in 1000 ml pH 7.0, hexane, 6.3 hours, room temperature)?
Answer: 50%

Question: And the “enantiomeric excess of R ibuprofen by chiral HPLC (acid product)” value ([6]; enzyme in aqueous phase only, 6.3 hours)?
Answer: 99.3%

Question: And the “enantiomeric excess of S ibuprofen by chiral HPLC (from unconverted ester)” value ([6]; enzyme in aqueous phase only, 6.3 hours, ester hydrolysed at pH 12)?
Answer: 98.9%

Question: And the “activity of the lipase against the ester” value [7]?
Answer: inactive

Question: For `CC(CSC(=O)c1ccccc1)C(=O)OCS(=O)(=O)O` (racemic) [Compound 16, Potassium Salt of the Sulfomethyl Ester of (±)-S-3-Benzoylthio-2-methylpropanoic Acid], which “% CONVERSION” value ([1]; 100 mg enzyme A, 10.0 mmol ester in 100 ml 2M Na3PO4 buffer pH 7.0, 25 C, 18 hours) is on record?
Answer: 53%

Question: And the “% e.e.” value ([1]; acid product (S), 100 mg enzyme A, pH 7.0, 25 C, 18 hours)?
Answer: 3%

Question: And the “% e.e.” value ([8]; acid product (S), 100 mg enzyme B, pH 7.0, 25 C, 18 hours)?
Answer: 10%

Question: With `CC(C)NCC(O)COc1cccc2ccccc12` [L-form of propranolol, propranolol] as the compound, how does the “times more potent than the D-enantiomer” value ([9]; L-form vs D-enantiomer) read?
Answer: 100 times

Question: For `CC(C)Cc1ccc(C(C)C(=O)OCCS(=O)(=O)O)cc1` (centres unmarked) [Compound 2, Sodium Salt of 2-Sulfoethyl Ester of 2-(4-Isobutylphenyl)propanoic Acid], which “% e.e.” value ([1]; acid product (R), 150 mg enzyme A, 125 ml buffer pH 7.0, 18 hours) is on record?
Answer: > 99%

Question: And the “% e.e.” value ([8]; acid product (R), 150 mg enzyme B, 125 ml buffer pH 7.0, 18 hours)?
Answer: 90.0%

Question: For `CC(C)Cc1ccc(C(C)C(=O)OCCCCS(=O)(=O)O)cc1` (centres unmarked) [Compound 4, Potassium Salt of 4-Sulfobutyl Ester of 2-(4-Isobutylphenyl)propanoic Acid], which Solubility [10] is on record?
Answer: 1130 mM

Question: What about the “% CONVERSION” value [3] of the same compound?
Answer: 22.0%

Question: Which “times more therapeutically potent than its R(-) counterpart” value ([9]; S(+) enantiomer vs R(-)) does the source give for `COc1ccc2cc([C@H](C)C(=O)O)ccc2c1` (stereo in doubt) [naproxen, (+)-S-2-(6-methoxy-2-naphthyl)propanoic acid] here?
Answer: 28 times
